# Measurements as given in patent US20210038559A1, “CANNABINOIDS AND DERIVATIVES FOR PROMOTING IMMUNOGENICITY OF TUMOR AND INFECTED CELLS” (priority 2018, published 2021).
# Tested on: MHC-I expression by COLO 205 cells
# Test: cells
# Assay type: cell-based, human
# Settings: not given
# Experimental: A panel of synthetic cannabinoids (Cayman Chemical, #9002891) was tested for MHC class I-inducing capability in COLO 205 cells as described above. COLO 205 cells were treated with the compounds at a concentration of 35 μM and evaluated for cell surface MHC class I expression after 48 hours. Cells were harvested, stained with MHC-I mAb W6/32 (Thermo Fisher). MHC-I expression was determined by flow cytometry.
row,Molecule,Induction Fold
1,1-naphthalenyl[5-(1-naphthalenyl)-1-pentyl-1H-pyrrol-3-yl]-methanone [Example 214],1.80 Fold
2,"CCCCCn1cc(C(=O)c2cccc3ccccc23)cc1-c1ccccc1F [Example 85, [5-(2-fluorophenyl)-1-pentyl-1H-pyrrol-3-yl]-1-naphthalenyl-methanone]",2.52 Fold
3,"CCCCCn1cc(Cc2cccc3ccccc23)c2ccccc21 [Example 252, 3-(1-naphthalenylmethyl)-1-pentyl-1H-indole]",1.61 Fold

# Same assay, conditions: Homo sapiens, COLO 205, 48 h, MHC-I expression, COLO 205 cells, compounds at 35 μM, 48 hours, flow cytometry (W6/32); read-out: Induction Fold
row,Molecule,fold induction at 35 µM
1,"CC(C)[C@H](NC(=O)c1cc(-c2ccc(F)cc2)n(CC2CCCCC2)n1)C(N)=O [Example 344, (S)-N-(1-amino-3-methyl-1-oxobutan-2-yl)-1-(cyclohexylmethyl)-5-(4-fluorophenyl)-1H-pyrazole-3-carboxamide]",1.14
2,"CC(C)Cn1cc(C(=O)c2ccc3ccccc3c2)c2ccccc21 [Example 284, (1-isobutyl-1H-indol-3-yl)(naphthalen-2-yl)methanone]",1.46
3,"CCC(C)(C)n1cc(C(=O)c2cccc3ccccc23)c2ccccc21 [Example 103, naphthalen-1-yl(1-(tert-pentyl)-1H-indol-3-yl)methanone]",2.41
4,"CC(Cl)CCCn1cc(C(=O)C2C(C)(C)C2(C)C)c2ccccc21 (stereo not drawn) [Example 113, (1-(4-chloropentyl)-1H-indol-3-yl)(2,2,3,3-tetramethylcyclopropyl)methanone]",2.36
5,"CCCCCCC(C)(C)c1ccc([C@@H]2CCC[C@H](O)C2)c(O)c1 [Example 39, 2[(1R,3S)-3-hydroxycyclohexyl]-5-(2-methyloctan-2-yl)phenol]",3.14
6,"CC(C)[C@H](NC(=O)c1nn(CC2CCCCC2)c2ccccc12)C(N)=O [Example 67, N-[(1S)-1-(aminocarbonyl)-2-methylpropyl]-1-(cyclohexylmethyl)-1H-indazole-3-carboxamide]",2.75
7,"CCCCCn1cc(C(=O)Cc2ccccc2OC)c2ccccc21 [Example 106, 1-(1-pentyl-1H-indol-3-yl)-2-(2-methoxyphenyl)-ethanone]",2.39
8,"CCCCCn1cc(C(=O)c2ccc(Cl)c3ccccc23)c2ccccc21 [Example 223, (4-chloro-1-naphthalenyl)(1-pentyl-1H-indol-3-yl)-methanone]",1.76
9,"CCCCCn1cc(C(=O)Cc2ccc(OC)cc2)c2ccccc21 [Example 59, 2-(4-methoxyphenyl)-1-(1-pentyl-1H-indol-3-yl)-ethanone]",2.85
10,"CCCCCn1cc(C(=O)c2cccc3cccc(Cl)c23)c2ccccc21 [Example 50, (8-chloronaphthalen-1-yl)(1-pentyl-1H-indol-3-yl)methanone]",3
11,"O=C(c1ccc(F)c2ccccc12)c1cn(CCCCCF)c2ccccc12 [Example 112, (4-fluoro-1-naphthalenyl)[1-(5-fluoropentyl)-1H-indol-3-yl]-methanone]",2.37
12,"NC(=O)[C@H](Cc1ccccc1)NC(=O)c1nn(Cc2ccc(F)cc2)c2ccccc12 [Example 213, N-[(1S)-2-amino-2-oxo-1-(phenylmethyl)ethyl]-1-[(4-fluorophenyl)methyl]-1H-indazole-3-carboxamide]",1.81
13,"CCCCCn1cc(C(=O)c2cccc3ccccc23)c2ccc(OC)cc21 [Example 175, (6-methoxy-1-pentyl-1H-indol-3-yl)(naphthalen-1-yl)-methanone]",1.95
14,"CN1CCCCC1Cn1cc(C(=O)C23CC4CC(CC(C4)C2)C3)c2ccccc21 (stereo not drawn) [Example 68, [1-[(1-methyl-2-piperidinyl)methyl]-1H-indol-3-yl]tricyclo[3.3.1.13,7]dec-1-yl-methanone]",2.72
15,"CCCCCn1cc(C(=O)c2cccc3cc(OC)ccc23)c2ccccc21 [Example 300, (6-methoxy-1-naphthalenyl)(1-pentyl-1H-indol-3-yl)-methanone]",1.42
16,"CCCCCn1cc(C(=O)c2c(Cl)ccc3ccccc23)c2ccccc21 [Example 75, (2-chloronaphthalen-1-yl)(1-pentyl-1H-indol-3-yl)methanone]",2.65
17,"NC(=O)[C@H](Cc1ccccc1)NC(=O)c1nn(CC2CCCCC2)c2ccccc12 [Example 29, N-[(1S)-2-amino-2-oxo-1-(phenylmethyl)ethyl]-1-(cyclohexylmethyl)-1H-Indazole-3-carboxamide]",3.41
18,"CCCCCn1cc(C(=O)c2cc(CC)cc3ccccc23)c2ccccc21 [Example 264, (3-ethyl-1-naphthalenyl)(1-pentyl-1H-indol-3-yl)-methanone]",1.56
19,"CCCCCn1nc(C(=O)N[C@@H](CCCC)C(N)=O)c2ccccc21 (single isomer, unassigned) [Example 11]",4.56
20,"CCCCCn1cc(C(=O)c2ccc(OC)c3ccccc23)c2ccccc21 [Example 265, (4-methoxy-1-naphthalenyl)(1-pentyl-1H-indol-3-yl)-methanone]",1.55

row,Molecule,fold induction at 35 µM
1,"CCCC(F)Cn1cc(C(=O)C2C(C)(C)C2(C)C)c2ccccc21 (stereo not drawn) [Example 153, [1-(2-fluoropentyl)-1H-indol-3-yl] (2,2,3,3-tetramethylcyclopropyl)-methanone]",2.11
2,"CCCCC(F)Cn1cc(C(=O)c2cccc3ccccc23)c2ccccc21 (stereo not drawn) [Example 207, (1-(2-fluorohexyl)-1H-indol-3-yl)(naphthalen-1-yl)methanone]",1.85
3,"CC(C)(NC(=O)c1nn(CCCCCF)c2ccccc12)c1ccccc1 [Example 228, 1-(5-fluoropentyl)-N-(1-methyl-1-phenylethyl)-1H-indazole-3-carboxamide]",1.72
4,"CCCCCn1cc(C(=O)c2cccc3ccc(C)cc23)c2ccccc21 [Example 161, (7-methyl-1-naphthalenyl)(1-pentyl-1H-indol-3-yl)-methanone]",2.06
5,"CC1(C)C(C(=O)c2cn(CCN3CCOCC3)c3ccccc23)C1(C)C [Example 147, [1-[2-(4-morpholinyl)ethyl]-1H-indol-3-yl](2,2,3,3-tetramethylcyclopropyl)-methanone]",2.14
6,"O=C(Nc1cccc2ccccc12)c1cn(Cc2ccc(F)cc2)c2ccccc12 [Example 330, 1-(4-fluorobenzyl)-N-(naphthalen-1-yl)-1H-indole-3-carboxamide]",1.23
7,"CCCCCCC(C)(C)c1ccc([C@H]2CCC[C@@H](O)C2)c(O)c1 [Example 371, 2[(1S,3R)-3-hydroxycyclohexyl]-5-(2-methyloctan-2-yl)phenol]",0.78
8,"CCCCCn1nc(C(=O)Oc2cccc3ccccc23)c2ccccc21 [Example 171, naphthalen-1-yl 1-pentyl-1H-indazole-3-carboxylate]",1.99
9,"O=C(Oc1cccc2ncccc12)c1cn(CC2CCCCC2)c2ccccc12 [Example 206, quinolin-5-yl 1-(cyclohexylmethyl)-1H-indole-3-carboxylate]",1.86
10,"CCCCCn1cc(C(=O)c2cccc3ccc(Cl)cc23)c2ccccc21 [Example 146, (7-chloronaphthalen-1-yl)(1-pentyl-1H-indol-3-yl)methanone]",2.16
11,"O=C(c1cccc(I)c1)c1cn(CCCCCF)c2ccccc12 [Example 130, (1-(5-fluoropentyl)-1H-indol-3-yl)(3-iodophenyl)methanone]",2.26
12,"CC(C)[C@H](NC(=O)c1nn(Cc2ccccc2F)c2ccccc12)C(N)=O [Example 143, N-[(1S)-1-(aminocarbonyl)-2-methylpropyl]-1-[(2-fluorophenyl)methyl]-1H-indazole-3-carboxamide]",2.19
13,"COC(=O)[C@@H](NC(=O)c1ccc2c(c1)c1ccccc1n2CC1CCCCC1)C(C)(C)C [Example 239, methyl (S)-2-(9-(cyclohexylmethyl)-9H-carbazole-3-carboxamido)-3,3-dimethylbutanoate]",1.69
14,"CCCCn1cc(C(=O)c2ccc(C)c3ccccc23)c2ccccc21 [Example 69, (1-butyl-1H-indol-3-yl)(4-methylnaphthalen-1-yl)methanone]",2.71
15,"O=C(c1nn(CCCCCF)c2ccccc12)N1CCCC1 [Example 230, (1-(5-fluoropentyl)-1H-indazol-3-yl)(pyrrolidin-1-yl)methanone]",1.72
16,"CCCCCn1cc(C(=O)Cc2cccc(C)c2)c2ccccc21 [Example 165, 1-(1-pentyl-1H-indol-3-yl)-2-(m-tolyl)ethanone]",2.02
17,"O=C(NCc1ccccc1)c1cn(CCCCCF)c2ccccc12 [Example 306, 1-(5-fluoropentyl)-N-(phenylmethyl)-1H-indole-3-carboxamide]",1.38
18,"CCCCCC1=C/C(=C\c2cccc3ccccc23)c2ccccc21 [Example 303, 1-[(E)-(3-pentyl-1H-inden-1-ylidene)methyl]-naphthalene]",1.39
19,"CCCCCn1c(C)c(C(=O)c2ccc(OC)c3ccccc23)c2ccccc21 [Example 372, (4-methoxy-1-naphthalenyl)(2-methyl-1-pentyl-1H-indol-3-yl)-methanone]",0.6

# Same assay, conditions: MHC-I expression, COLO 205 cells, compounds at 35 μM, 48 hours, flow cytometry (W6/32)
row,Molecule,Induction Fold
1,"COC(=O)[C@@H](NC(=O)c1cn(Cc2ccc(F)cc2)c2ccccc12)C(C)C [Example 270, N-[[1-[(4-fluorophenyl)methyl]-1H-indol-3-yl]carbonyl]-1-valine, methyl ester]",1.54 Fold
2,"CCCCCCN1C(=O)/C(=N\NC(=O)c2ccccc2)c2ccccc21 [Example 125, (2Z)-2-(1-hexyl-1,2-dihydro-2-oxo-3H-indol-3-ylidene)hydrazide, benzoic acid]",2.29 Fold
3,CCCCCn1cc(-c2nc(CN(CC)CC)cs2)c2ccccc21 [Example 366],0.89 Fold
